In patent US7235674B2, “Substituted coumarins and quinolines and analogs as activators of caspases and inducers of apoptosis and the use thereof” (Cytovia, Inc., priority 2001, dated 2007):

Legend:
[1] = tested on: Human breast cancer cell line T-47D; test: Caspase cascade activation assay (N-(Ac-DEVD)-N'-ethoxycarbonyl-R110 fluorogenic substrate) in T-47D cells; format: cell-based; settings: for EC50 / EC50 (nM) T-47D: caspase cascade activation potency; for EC50 / Caspase activity (Ratio) T-47D / EC50 (nM) T-47D: T-47D cells, 24 h incubation; for Caspase activity (Ratio) T-47D: ratio of net RFU of test compound to control, 3 h substrate reading; for EC50 (nM) T47D / Max efficacy T47D: commercial fused-pyridine compounds, T47D cells
Protocol: (§1) Human breast cancer cell lines T-47D and ZR-75-1 were grown according to media component mixtures designated by American Type Culture Collection +10% FCS (Invitrogen Corporation), in a 5% CO2 −95% humidity incubator at 37° C. T-47D and ZR-75-1 cells were maintained at a cell density between 30 and 80% confluency at a cell density of 0.1 to 0.6×10^6 cells/mL. Cells were harvested at 600×g and resuspended at 0.65×10^6 cells/mL into appropriate media +10% FCS. An aliquot of 45 μl of cells was added to a well of a 96-well microtiter plate containing 5 μl of a 10% DMSO in RPMI-1640 media solution containing 0.16 to 10 μM of 3-cyano-7-methoxy-4-(3-bromo-4,5-dimethoxyphenyl)-2-oxo-2H-chromene (Example 1) or other test compound (0.016 to 1 μM final). An aliquot of 45 μl of cells was added to a well of a 96-well microtiter plate containing 5 μl of a 10% DMSO in RPMI-1640 media solution without test compound as the control sample. The samples were mixed by agitation and then incubated at 37° C. for 24 h in a 5% CO2 −95% humidity incubator. After incubation, the samples were removed from the incubator and 50 μl of a solution containing 20 μM of N-(Ac-DEVD)-N′-ethoxycarbonyl-R110 fluorogenic substrate (SEQ ID NO:1) (Cytovia, Inc.; WO99/18856), 20% sucrose (Sigma), 20 mM DTT (Sigma), 200 mM NaCl (Sigma), 40 mM Na PIPES buffer pH 7.2 (Sigma), and 500 μg/ml lysolecithin (Calbiochem) was added. The samples were mixed by agitation and incubated at room temperature. Using a fluorescent plate reader (Model 1420 Wallac Instruments), an initial reading (T=0) was made approximately 1-2 min after addition of the substrate solution, employing excitation at 485 nm and emission at 530 nm, to determine the background fluorescence of the control sample. After the 3 h incubation, the samples were read for fluorescence as above (T=3 h).
(§2) The Relative Fluorescence Unit values (RFU) were used to calculate the sample readings as follows: RFU(T=3 h)−Control RFU(T=0)=Net RFU(T=3 h)
(§3) The activity of caspase cascade activation was determined by the ratio of the net RFU value for 3-cyano-7-methoxy-4-(3-bromo-4,5-dimethoxy-phenyl)-2-oxo-2H-chromene, or other test compound, to that of control samples. The EC50 (nM) was determined by a sigmoidal dose-response calculation (Prism 2.0, GraphPad Software Inc.).

[2] = tested on: Human breast cancer cell line ZR-75-1; test: Caspase cascade activation assay (N-(Ac-DEVD)-N'-ethoxycarbonyl-R110 fluorogenic substrate) in ZR-75-1 cells; format: cell-based; settings: for Caspase activity (Ratio) ZR-75-1: ratio of net RFU of test compound to control, 3 h substrate reading; for maximal fold induction: ZR-75-1, 24 h, read-out: Max efficacy ZR751
Protocol: as §1, §2, §3

[3] = Homo sapiens, caspase cascade activation potency, ZR-75-1 cells, 24 h incubation
[4] = Homo sapiens, commercial fused-pyridine compounds, ZR751 cells
[5] = Homo sapiens, ZR-75-1, commercial fused-pyridine compounds, ZR751 cells
[6] = caspase cascade activation potency, ZR-75-1 cells, 24 h incubation

SMILES | EC50 ([1]; Homo sapiens, T47D) [nM] | Caspase activity (Ratio) T-47D [1] | EC50 [2, 3] [nM] | Caspase activity (Ratio) ZR-75-1 ([2]; ZR-75-1 cells, 24 h incubation) | also measured
COc1ccc(OC)c(C2=c3ccc4c(c3OC(=O)C2C#N)C=CN=4)c1 (stereo not shown) [Example 24, 3-Cyano-4-(2,5-dimethoxyphenyl)-2-oxo-2H-pyrrolo[2,3-h]chromene] | 585 | 4.5 | 405 | 7.1 | 
Cn1ccc2c3oc(=O)c(C#N)c(-c4cccc(Br)c4)c3ccc21 [Example 42, 3-Cyano-4-(3-bromo-phenyl)-7-methyl-2-oxo-2H-pyrrolo[2,3-h]chromene] | 56 | 2.6 | 17 | 4.2 | 
N#Cc1c(N)nc2c(c1-c1cccs1)CCCC2 [compound 46] |  |  |  |  | EC50 (nM) T47D [1]: Inactive; Max efficacy T47D [1]: Inactive; maximal fold induction [2, 4]: 3.1; EC50 [2, 5]: 3410 nM
COc1cccc(-c2c(C#N)c(=N)sc3cc(OC)ccc23)c1 [Example 30, 2-Imino-3-cyano-7-methoxy-4-(3′-methoxy-phenyl)-2H-thiochromene] |  | Inactive |  | Inactive | EC50 (nM) T-47D [1]: Inactive; EC50 (nM) ZR-75-1 [2, 6]: Inactive
COc1cc(-c2c(C#N)c(=O)oc3cc(N(C)C)ccc23)cc(Br)c1OC [Example 21, 3-Cyano-7-dimethylamino-4-(3-bromo-4,5-dimethoxyphenyl)-2-oxo-2H-chromene] | 546 | 5.8 | 279 | 9.1 | 
N#Cc1c(-c2ccccc2)c2ccccc2oc1=O [Example 4, 3-Cyano-4-phenyl-2-oxo-2H-chromene] |  | Inactive |  | Inactive | EC50 (nM) T-47D [1]: Inactive; EC50 (nM) ZR-75-1 [2, 6]: Inactive
COc1cc(-c2c(C#N)c(=O)oc3c2ccc2c3ccn2C)cc2c1OCO2 [Example 40, 3-Cyano-4-(3-methoxy-4,5-methylenedioxyphenyl)-7-methyl-2-oxo-2H-pyrrolo[2,3-h]chromene] | > 100 | 1.7 | 24 | 4.9 | 
COc1cccc(-c2c(C#N)c(=O)oc3cc(OC)ccc23)c1 [Example 17, 3-Cyano-4-(3-methoxy-phenyl)-7-methoxy-2-oxo-2H-chromene] | 99.7 | 8.9 | 43.4 | 11.7 | 
COc1cc(OC)cc(C2=c3ccc4c(c3OC(=O)C2C#N)C=CN=4)c1 (stereo not shown) [Example 16, 4-(3,5-Dimethoxyphenyl)-3-cyano-2-oxo-2H-pyrrolo[2,3-h]chromene] | 106 | 3.1 | 174 | 3.6 | 
COc1ccc2c(-c3cc(Br)c(OC)c(OC)c3)c(C#N)c(=O)oc2c1 [Example 1, 3-Cyano-7-methoxy-4-(3-bromo-4,5-dimethoxyphenyl)-2-oxo-2H-chromene] | 257 | 6.2 | 97 | 4.2 | 
COc1cc(OC)cc(-c2c(C#N)c(=O)oc3cc(N(C)C)ccc23)c1 [Example 23, 3-Cyano-7-dimethylamino-4-(3,5-dimethoxyphenyl)-2-oxo-2H-chromene] | 456 | 2.3 | 429 | 7.2 | 
COc1cc(-c2c(C#N)c(=N)oc3cc(N(C)C)ccc23)cc(Br)c1OC [Example 31, 2-Imino-3-cyano-7-dimethylamino-4-(3-bromo-4,5-dimethoxyphenyl)-2H-chromene] | 2500 |  |  |  | 
COc1cc(OC)cc(-c2c(C#N)c(=O)oc3cc(N)ccc23)c1 [Example 22, 7-Amino-3-cyano-4-(3,5-dimethoxyphenyl)-2-oxo-2H-chromene] |  | 1.5 | 400 | 3.4 | EC50 (nM) T-47D [1]: Inactive
COc1cccc(C2=c3ccc4c(c3OC(=O)C2C#N)C=CN=4)c1 (stereo not shown) [Example 5, 3-Cyano-4-(3-methoxyphenyl)-2-oxo-2H-pyrrolo[2,3-h]chromene] | 200 | 2.0 | 111 | 10.4 | 
COc1ccc(-c2c(C#N)c(N)nc3c2CN(C)CC3)cc1OC [compound 50] |  |  |  |  | EC50 (nM) T47D [1]: Inactive; Max efficacy T47D [1]: Inactive; maximal fold induction [2, 4]: 2.4; EC50 [2, 5]: 576 nM
COc1cc(-c2c(C#N)c(N)nc3c2CCc2ccccc2-3)cc(Br)c1OC [Example 19, 2-Amino-4-(3-bromo-4,5-dimethoxyphenyl)-3-cyano-5,6-dihydro-benzo[h]quinoline] | 4060 | 5.4 | 556 | 7.9 | 
COc1cc(-c2cc3c(c4c2=C(C#N)C(=O)O4)OC(C)(C)CC=3)cc(Br)c1OC [Example 20, 4-(3-Bromo-4,5-dimethoxyphenyl)-3-cyano-7,8-dihydro-8,8-dimethyl-2-oxo-2H-furo[3,2-h]chromene] |  | 1.6 | 1000 | 3.1 | EC50 (nM) T-47D [1]: Inactive
N#Cc1c(-c2ccccc2)c2ccccc2[nH]c1=O [Example 6, 3-Cyano-4-phenyl-quinolin-1H-2-one] |  | 9.1 |  | 10.6 | EC50 [1]: 4800 nM; EC50 [2, 6]: 882 nM
COc1cc(OC)cc(-c2c(C#N)c(=O)oc3cc(OC)ccc23)c1 [Example 2, 3-Cyano-7-methoxy-4-(3,5-dimethoxyphenyl)-2-oxo-2H-chromene] | 44 | 4.1 | 11 | 5.4 | 
N#Cc1c(N)nc2[nH]c(=S)[nH]c(=O)c2c1-c1ccc(Cl)cc1 [compound 51] |  |  |  |  | EC50 (nM) T47D [1]: Inactive; Max efficacy T47D [1]: Inactive; maximal fold induction [2, 4]: 2.8; EC50 [2, 5]: 5380 nM
COc1cccc(-c2c(C#N)c(=O)oc3c2ccc2c3ccn2C)c1 [Example 41, 3-Cyano-4-(3-methoxy-phenyl)-7-methyl-2-oxo-2H-pyrrolo[2,3-h]chromene] | 55 | 2.3 | 22 | 4.9 | 
COc1cccc(-c2c(C#N)c(=O)[nH]c3cc(Cl)ccc23)c1 [Example 8, 7-Chloro-3-cyano-4-(3-methoxy-phenyl)-quinolin-1H-2-one] |  | 4.1 |  | 10.1 | EC50 [1]: 1170 nM; EC50 [2, 6]: 878 nM
CNc1ccc2c(-c3cc(Br)c(OC)c(OC)c3)c(C#N)c(=O)oc2c1 [Example 25, 4-(3-Bromo-4,5-dimethoxy-phenyl)-3-cyano-7-methylamino-2-oxo-2H-chromene] | 1090 | 4.9 | 356 | 6.1 | 
COc1ccc2c(-c3cc(Br)c(OC)c(OC)c3)c(C#N)c(=O)[nH]c2c1 [Example 9, 4-(3-Bromo-4,5-dimethoxy-phenyl)-3-cyano-7-methoxy-quinolin-1H-2-one] |  | 4.4 |  | 7.4 | EC50 [1]: 4410 nM; EC50 [2, 6]: 2050 nM
COc1cc(-c2c(C#N)c(=O)oc3cc(N)ccc23)cc(Br)c1OC [Example 18, 7-Amino-4-(3-bromo-4,5-dimethoxyphenyl)-3-cyano-2-oxo-2H-chromene] | 1490 | 2.2 | 320 | 7.1 | 
N#Cc1c(N)nc2sc(C(N)=O)c(N)c2c1-c1ccc(Br)cc1 [compound 47] |  |  |  |  | EC50 (nM) T47D [1]: Inactive; Max efficacy T47D [1]: Inactive; maximal fold induction [2, 4]: 2.7; EC50 [2, 5]: 6110 nM
COc1cc(-c2c(C#N)c(=O)oc3cc(Cl)ccc23)cc(Br)c1OC [Example 28, 4-(3-Bromo-4,5-dimethoxy-phenyl)-7-chloro-3-cyano-2-oxo-2H-chromene] | 2960 | 2.2 |  |  | 
